Molecules are shown by their SMILES. A value given as a limit tells only on which side of the number the result lay.

The target in one assay is T1, Kv1.3 potassium channel (Homo sapiens, UniProt P22001).
T1 construct: expressed in transfected cells
Put plainly: Kv1.3 potassium channel blocker activity, automated whole-cell patch clamp (Patchliner). The format is cell-based. The gist of the method: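 IC50 came from Hill-equation fits of peak and AUC currents from the final pulse at each concentration, normalized to compound-free control. Compounds applied consecutively at 30 nM to 100 μM (up to 0.3% DMSO) to Kv1.3-expressing CHO-K1 cells, P/4 leak subtraction. Pulses were +40 mV, 100 ms, from −90 mV holding, at 0.1 Hz on Patchliner.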
(In patch-clamp work, channel activity is measured electrically.)

The target in another assay is T2, hERG channel (Homo sapiens, UniProt Q12809).
T2 construct: expressed in transfected cells
T2 sequence (Q12809 whole entry): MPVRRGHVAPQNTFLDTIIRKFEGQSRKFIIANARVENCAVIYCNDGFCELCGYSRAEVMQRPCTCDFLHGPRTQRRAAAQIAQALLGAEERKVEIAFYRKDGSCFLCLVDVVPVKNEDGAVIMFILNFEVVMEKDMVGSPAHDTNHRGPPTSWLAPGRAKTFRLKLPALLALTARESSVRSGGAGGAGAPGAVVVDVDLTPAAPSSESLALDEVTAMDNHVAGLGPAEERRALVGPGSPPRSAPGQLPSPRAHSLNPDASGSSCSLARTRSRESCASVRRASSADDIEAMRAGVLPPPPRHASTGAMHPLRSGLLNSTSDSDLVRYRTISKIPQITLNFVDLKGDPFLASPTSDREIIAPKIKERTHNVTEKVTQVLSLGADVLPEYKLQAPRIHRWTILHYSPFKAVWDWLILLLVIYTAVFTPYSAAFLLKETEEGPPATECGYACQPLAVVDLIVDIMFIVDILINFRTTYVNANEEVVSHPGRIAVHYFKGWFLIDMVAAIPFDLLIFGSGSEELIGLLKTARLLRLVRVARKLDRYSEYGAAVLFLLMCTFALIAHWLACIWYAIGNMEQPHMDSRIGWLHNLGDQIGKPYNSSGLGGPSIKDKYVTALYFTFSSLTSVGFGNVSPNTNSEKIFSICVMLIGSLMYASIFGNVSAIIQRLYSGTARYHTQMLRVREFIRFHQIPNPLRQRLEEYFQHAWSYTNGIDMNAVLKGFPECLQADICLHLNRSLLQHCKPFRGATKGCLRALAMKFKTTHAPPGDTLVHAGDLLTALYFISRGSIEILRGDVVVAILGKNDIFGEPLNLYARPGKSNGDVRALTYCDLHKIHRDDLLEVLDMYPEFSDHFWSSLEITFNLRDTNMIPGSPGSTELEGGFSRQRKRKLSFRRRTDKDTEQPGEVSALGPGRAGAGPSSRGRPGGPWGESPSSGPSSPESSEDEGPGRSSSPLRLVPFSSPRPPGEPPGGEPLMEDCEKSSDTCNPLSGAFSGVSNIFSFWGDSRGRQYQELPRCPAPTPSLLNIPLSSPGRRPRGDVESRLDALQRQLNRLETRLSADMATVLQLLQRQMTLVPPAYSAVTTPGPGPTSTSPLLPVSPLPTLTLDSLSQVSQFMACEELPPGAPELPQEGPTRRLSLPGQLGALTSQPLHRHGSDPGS
As to the kind of experiment: hERG electrophysiology, automated whole-cell patch clamp (Patchliner). The format is cell-based. In short, it runs like this:
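Automated whole-cell patch clamp on CHO-K1 cells stably expressing hERG; 30 nM–100 μM applied cumulatively to the same cell, ≤0.3% DMSO. Pulses: −80 mV holding, +20 mV for 300 ms, −50 mV for 300 ms tail, 0.3 Hz, 70 per concentration. Last-pulse AUC and peak, normalized to control, were fitted to a Hill equation for IC50.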
(The hERG channel carries a current that helps repolarise heart muscle cells.)

Setting [1] is: CHO-K1 cells stably expressing Kv1.3, 100 ms pulses from -90 mV to +40 mV, 0.1 Hz.
Setting [2] is: CHO-K1 cells stably expressing hERG, +20 mV 300 ms, -50 mV 300 ms tail current, 0.3 Hz.
The mark [3] stands for this setting: Kv1.3 potassium channel, whole-cell patch clamp.
[4] abbreviates: hERG channel, whole-cell patch clamp.

T1 sequence (P22001 whole entry): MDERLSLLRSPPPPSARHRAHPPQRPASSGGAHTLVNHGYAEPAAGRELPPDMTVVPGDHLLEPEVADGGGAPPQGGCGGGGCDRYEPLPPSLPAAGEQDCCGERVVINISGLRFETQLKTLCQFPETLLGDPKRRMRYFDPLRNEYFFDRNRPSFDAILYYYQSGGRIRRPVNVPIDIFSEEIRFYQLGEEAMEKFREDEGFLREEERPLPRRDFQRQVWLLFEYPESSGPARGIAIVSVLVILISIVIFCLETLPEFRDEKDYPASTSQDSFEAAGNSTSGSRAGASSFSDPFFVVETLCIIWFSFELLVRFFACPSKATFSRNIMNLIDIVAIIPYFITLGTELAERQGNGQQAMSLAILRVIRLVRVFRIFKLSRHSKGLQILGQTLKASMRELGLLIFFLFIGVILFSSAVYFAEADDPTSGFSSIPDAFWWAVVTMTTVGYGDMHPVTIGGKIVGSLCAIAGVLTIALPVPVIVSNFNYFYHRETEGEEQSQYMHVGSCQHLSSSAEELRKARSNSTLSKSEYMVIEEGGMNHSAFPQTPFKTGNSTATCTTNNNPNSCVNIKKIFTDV

In general, IC50 refers to the point on the concentration scale where inhibition reaches its midpoint. Lower therefore signals higher potency. For the compound `C[C@H](CO)C(=O)N1CC(=O)N2CC[C@@H](c3c(O)ccc(Cl)c3Cl)C[C@H]2C1` [Compound 54, (8R,9aS)-8-(2,3-dichloro-6-hydroxyphenyl)-2-((R)-3-hydroxy-2-methylpropanoyl)octahydro-4H-pyrido[1,2-a]pyrazin-4-one], the values for the half-inhibitory concentration (IC50) on Kv1.3 potassium channel (setting [1]) and against hERG channel (setting [2]) were below 1 µM and above 30 µM, respectively.

Take `O=C1CN(C[C@@H](O)CO)C[C@@H]2C[C@H](c3c(O)ccc(Cl)c3Cl)CN12` (single isomer, unassigned) [Compound 114]: the IC50 against Kv1.3 potassium channel (setting [3]) was below 1 µM; against hERG channel (setting [4]), above 30 µM.

`O=C1O[C@@H]([C@@H](O)CO)[C@@H]2C[C@H](c3c(O)ccc(Cl)c3Cl)CN12` (single isomer, unassigned) [Compound 260]: the 50% inhibitory concentration (IC50) against Kv1.3 potassium channel (setting [3]) was below 1 µM; at hERG channel (setting [4]), above 30 µM.

Regarding `O=C1C[C@@H](N2CC(O)C2)C[C@@H]2C[C@H](c3c(O)ccc(Cl)c3Cl)CN12` (single isomer, unassigned) [Compound 196], the values for the half-inhibitory concentration (IC50) against Kv1.3 potassium channel (setting [3]) and on hERG channel (setting [4]) were below 1 µM and above 30 µM, respectively.

Consider `NCC1CC(=O)N2C[C@@H](c3c(O)ccc(Cl)c3Cl)C[C@H]2C1` (stereo partly drawn) [Compound 217, (2R,8aR)-7-(aminomethyl)-2-(2,3-dichloro-6-hydroxyphenyl)-hexahydro-1H-indolizin-5-one], for which the IC50 at Kv1.3 potassium channel (setting [3]) is below 1 µM; against hERG channel (setting [4]), above 30 µM.

In the case of `NCCN1C[C@@H]2C[C@H](c3c(O)ccc(Cl)c3Cl)CN2C1=O` [Compound 292, (6R,7aS)-2-(2-aminoethyl)-6-(2,3-dichloro-6-hydroxyphenyl)-tetrahydro-1H-pyrrolo[1,2-c]imidazol-3-one], the results for the IC50 against Kv1.3 potassium channel (setting [3]) and against hERG channel (setting [4]) were below 1 µM and below 30 µM, respectively.

As to `NC(=O)CC1OC[C@@H]2C[C@H](c3c(O)ccc(Cl)c3Cl)CCN2C1=O` (stereo partly drawn) [Compound 187, 2-[(8R,9aS)-8-(2,3-dichloro-6-hydroxyphenyl)-4-oxo-hexahydro-1H-pyrido[2,1-c][1,4]oxazin-3-yl]acetamide], the results for the concentration for half-maximal inhibition (IC50) against Kv1.3 potassium channel (setting [3]) and against hERG channel (setting [4]) were below 1 µM and above 30 µM, respectively.

`O=C1C[C@@H](N2CC[C@@H](O)C2)C[C@@H]2C[C@H](c3c(O)ccc(Cl)c3Cl)CN12` (single isomer, unassigned) [Compound 192]: the IC50 was below 1 µM on Kv1.3 potassium channel (setting [3]) and above 30 µM on hERG channel (setting [4]).

Consider `O=C1C[C@H](CO)C[C@@H]2C[C@H](c3c(O)ccc(Cl)c3Cl)CN12` (single isomer, unassigned) [Compound 238], for which the results for the IC50 on Kv1.3 potassium channel (setting [3]) and at hERG channel (setting [4]) were below 1 µM and above 30 µM, respectively.

Regarding `O=C(CO)N1CCC(=O)N2C[C@@H](c3c(O)ccc(Cl)c3Cl)C[C@H]2C1` [Compound 18, (8R,9aS)-8-(2,3-dichloro-6-hydroxyphenyl)-2-(2-hydroxyacetyl)-hexahydro-1H-pyrrolo[1,2-a][1,4]diazepin-5-one], the 50% inhibitory concentration (IC50) at Kv1.3 potassium channel (setting [1]) was below 1 µM; against hERG channel (setting [2]), above 30 µM.

In the case of `NC[C@]1(O)CC(=O)N2C[C@@H](c3c(O)ccc(Cl)c3Cl)C[C@H]2C1` (single isomer, unassigned) [Compound 219], the IC50 is below 1 µM against Kv1.3 potassium channel (setting [3]) and above 30 µM on hERG channel (setting [4]).

On to `O=C1CN(C[C@@H]2CCN2)C[C@@H]2C[C@H](c3c(O)ccc(Cl)c3Cl)CN12` (single isomer, unassigned; isomer 1) [Compound 139], for which the IC50 on Kv1.3 potassium channel (setting [3]) was below 1 µM; on hERG channel (setting [4]), above 30 µM.

Take `N[C@H]1CC2C[C@H](c3c(O)ccc(Cl)c3Cl)CN2C1=O` (single isomer, unassigned) [Compound 248]: the 50% inhibitory concentration (IC50) was below 1 µM against Kv1.3 potassium channel (setting [3]) and below 10 µM against hERG channel (setting [4]).

As to `C[C@H](C1CNC1)N1CC(=O)N2C[C@@H](c3c(O)ccc(Cl)c3Cl)C[C@H]2C1` (single isomer, unassigned; isomer 2) [Compound 138], the 50% inhibitory concentration (IC50) against Kv1.3 potassium channel (setting [3]) was below 1 µM; against hERG channel (setting [4]), above 30 µM.

For `C[C@H](CO)N1CC(=O)N2C[C@@H](c3c(O)ccc(Cl)c3Cl)C[C@H]2C1` (single isomer, unassigned) [Compound 116], the results for the IC50 on Kv1.3 potassium channel (setting [3]) and on hERG channel (setting [4]) were below 1 µM and above 30 µM, respectively.

As to `CNC(=O)[C@@H]1OC(=O)N2C[C@@H](c3c(O)ccc(Cl)c3Cl)C[C@@H]12` (single isomer, unassigned) [Compound 288], the IC50 against Kv1.3 potassium channel (setting [3]) is below 1 µM; against hERG channel (setting [4]), above 30 µM.

For `NC(=O)N1CC(=O)N2CC[C@@H](c3c(O)ccc(Cl)c3Cl)C[C@H]2C1` [Compound 96, (8R,9aS)-8-(2,3-dichloro-6-hydroxyphenyl)-4-oxo-hexahydro-1H-pyrido[1,2-a]pyrazine-2-carboxamide], the half-maximal inhibitory concentration (IC50) was below 1 µM on Kv1.3 potassium channel (setting [3]) and above 30 µM at hERG channel (setting [4]).

On to `O=C([C@@H]1OCC[C@@H]1O)N1CC(=O)N2C[C@@H](c3c(O)ccc(Cl)c3Cl)C[C@H]2C1` [Compound 74, (7R,8aS)-7-(2,3-dichloro-6-hydroxyphenyl)-2-[(2R,3S)-3-hydroxyoxolane-2-carbonyl]-hexahydropyrrolo [1,2-a]pyrazin-4-one], for which the values for the IC50 on Kv1.3 potassium channel (setting [3]) and against hERG channel (setting [4]) were below 1 µM and above 30 µM, respectively.

Regarding `O=C1C[C@H](NCCO)C[C@@H]2C[C@H](c3c(O)ccc(Cl)c3Cl)CN12` (single isomer, unassigned) [Compound 203], the IC50 was below 1 µM at Kv1.3 potassium channel (setting [3]) and above 30 µM against hERG channel (setting [4]).

`CNC(=O)C1CC(=O)N2C[C@@H](c3c(O)ccc(Cl)c3Cl)C[C@H]2C1` (stereo partly drawn) [Compound 232, (2R,8aS)-2-(2,3-dichloro-6-hydroxyphenyl)-N-methyl-5-oxo-hexahydro-1H-indolizine-7-carboxamide]: the values for the concentration for half-maximal inhibition (IC50) against Kv1.3 potassium channel (setting [3]) and against hERG channel (setting [4]) were below 1 µM and above 30 µM, respectively.

With `CC1(CN2CC(=O)N3C[C@@H](c4c(O)ccc(Cl)c4Cl)C[C@H]3C2)CNC1` [Compound 167, (7R,8aS)-7-(2,3-dichloro-6-hydroxyphenyl)-2-[(3-methylazetidin-3-yl)methyl]-hexahydropyrrolo[1,2-a]pyrazin-4-one], the values for the IC50 on Kv1.3 potassium channel (setting [3]) and against hERG channel (setting [4]) were below 1 µM and above 30 µM, respectively.

For `O=C1CN(c2ccnc(CO)n2)C[C@@H]2C[C@H](c3c(O)ccc(Cl)c3Cl)CN12` [Compound 169, (7R,8aS)-7-(2,3-dichloro-6-hydroxyphenyl)-2-[2-(hydroxymethyl)pyrimidin-4-yl]-hexahydropyrrolo[1,2-a]pyrazin-4-one], the IC50 against Kv1.3 potassium channel (setting [3]) was below 1 µM; on hERG channel (setting [4]) it was above 30 µM.

For the compound `O=C1O[C@H](CN2CCNCC2)[C@@H]2C[C@H](c3c(O)ccc(Cl)c3Cl)CN12` (single isomer, unassigned) [Compound 280], the results for the half-maximal inhibitory concentration (IC50) against Kv1.3 potassium channel (setting [3]) and against hERG channel (setting [4]) were below 1 µM and above 30 µM, respectively.

For the origin of these results see US20230049231A1 (priority 2019, published 2023).
